From ChEMBL document CHEMBL3638726, “Substituted indole compounds having NOS inhibitory activity” (2013)

These compounds were tested against 5-hydroxytryptamine 1D receptor (Bos taurus, UniProt Q8MI13) (assay: Binding Assay: 5-HT1D binding assays (agonist radioligand)were performed using bovine caudate membranes according to the methods of Heuring and Peroutka (J. Neurosci 1987, 7: 894-903). 5-HT1B (rat cerebral cortex) binding assays (agonist radioligand) were performed according to the method of Hoyer et. al. (Eur. J. Pharmacol. […], 118: 1-12).).
Sequence of 5-hydroxytryptamine 1D receptor (Q8MI13 whole entry): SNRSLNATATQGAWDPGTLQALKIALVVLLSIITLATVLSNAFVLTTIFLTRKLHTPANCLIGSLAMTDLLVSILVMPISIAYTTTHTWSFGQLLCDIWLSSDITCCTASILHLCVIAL
Format: tissue-based
`CN(C)CCc1c[nH]c2ccc(CNC(=N)c3cccs3)cc12` gave an IC50 of 290 nM. `CN1CC=C(c2c[nH]c3ccc(NC(=S)NC(=O)c4ccccc4)cc23)CC1` was tested, and the IC50 was 56 nM. `CN1CCC(c2c[nH]c3ccc(NC(=N)c4cccs4)cc23)CC1` showed an IC50 of 570 nM. With `CN1CCC(c2c[nH]c3ccc(NC(=N)c4cccs4)cc23)C1` (stereo not drawn) the IC50 was 350 nM. `CN1CC=C(c2c[nH]c3ccc(NC(=N)c4cccs4)cc23)CC1` was tested, and the IC50 was 51 nM. For `CCN1CCC(c2c[nH]c3ccc(NC(=N)c4cccs4)cc23)CC1`, the IC50 was 680 nM. `CN1CC=C(c2c[nH]c3ccc(NC(=N)c4ccco4)cc23)CC1` gave an IC50 of 50 nM. `CN1CCC[C@@H]1Cc1c[nH]c2ccc(NC(=N)c3cccs3)cc12` showed an IC50 of 130 nM. `CN1CC=C(c2c[nH]c3ccc(CNC(=N)c4cccs4)cc23)CC1` showed an IC50 of 220 nM. With `CN1CCC(c2c[nH]c3ccc(/N=C(\N)c4ccco4)cc23)C1` (stereo not drawn) the IC50 was 560 nM. `CCSC(=N)Nc1ccc2[nH]cc(C3=CCN(C)CC3)c2c1` showed an IC50 of 48 nM. `CN1CCC[C@H]1Cc1c[nH]c2ccc(NC(=N)c3cccs3)cc12` was tested, and the IC50 was 1100 nM.

These compounds were tested against T1, Nitric oxide synthase 3 (Homo sapiens, UniProt P29474) (assay: Enzyme Assay: Enzyme assay using recombinant human inducible NOS (iNOS), human endothelial constitutive NOS (eNOS) or human neuronal constitutive NOS (nNOS).).
T1 sequence (P29474 whole entry): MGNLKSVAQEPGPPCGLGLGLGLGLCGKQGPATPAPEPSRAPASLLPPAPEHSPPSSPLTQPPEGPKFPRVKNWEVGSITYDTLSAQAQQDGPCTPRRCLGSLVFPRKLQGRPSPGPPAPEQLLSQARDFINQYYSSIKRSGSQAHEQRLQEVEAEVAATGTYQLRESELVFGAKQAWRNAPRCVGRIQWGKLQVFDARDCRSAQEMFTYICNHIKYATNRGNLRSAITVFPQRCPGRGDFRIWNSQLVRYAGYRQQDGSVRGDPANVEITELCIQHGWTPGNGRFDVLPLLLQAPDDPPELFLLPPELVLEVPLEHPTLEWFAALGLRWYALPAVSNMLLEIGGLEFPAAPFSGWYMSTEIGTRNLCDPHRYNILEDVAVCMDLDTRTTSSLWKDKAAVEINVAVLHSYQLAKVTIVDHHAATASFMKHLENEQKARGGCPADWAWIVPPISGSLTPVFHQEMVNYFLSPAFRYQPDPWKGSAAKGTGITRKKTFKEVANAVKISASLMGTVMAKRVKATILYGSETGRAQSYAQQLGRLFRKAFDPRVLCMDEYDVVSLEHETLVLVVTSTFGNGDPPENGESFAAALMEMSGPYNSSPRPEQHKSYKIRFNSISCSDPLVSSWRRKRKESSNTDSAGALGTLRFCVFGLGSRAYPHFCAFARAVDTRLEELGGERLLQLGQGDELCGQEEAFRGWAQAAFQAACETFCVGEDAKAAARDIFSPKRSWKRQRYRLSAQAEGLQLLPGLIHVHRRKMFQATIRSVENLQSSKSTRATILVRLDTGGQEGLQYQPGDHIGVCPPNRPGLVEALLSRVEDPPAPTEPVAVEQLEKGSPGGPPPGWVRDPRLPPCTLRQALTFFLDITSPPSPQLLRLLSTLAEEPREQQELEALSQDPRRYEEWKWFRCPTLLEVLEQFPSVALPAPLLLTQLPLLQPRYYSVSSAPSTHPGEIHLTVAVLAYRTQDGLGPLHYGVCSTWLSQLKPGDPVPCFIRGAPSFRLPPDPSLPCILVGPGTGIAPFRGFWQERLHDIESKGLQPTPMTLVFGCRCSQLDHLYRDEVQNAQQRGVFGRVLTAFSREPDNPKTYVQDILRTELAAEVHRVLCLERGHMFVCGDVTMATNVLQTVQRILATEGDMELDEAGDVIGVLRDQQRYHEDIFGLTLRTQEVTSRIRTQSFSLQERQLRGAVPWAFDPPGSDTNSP
In the case of `CN1CC[C@@H](c2c[nH]c3ccc(/N=C(\N)c4cccs4)cc23)[C@H](F)C1`, the IC50 is reported as 40100 nM.
